For experiment [1], the system named is tumor blood vessels in Lewis lung cancer (LLC) tumor-bearing mice. The experiment is described as follows: Structural changes in tumor blood vessels (anti-CD31 immunostaining) after administration of LPA or LPA derivative. The format is in vivo. The conditions noted are these: 3 mg/kg intraperitoneally once daily for five days, tumors harvested at 6 days, anti-CD31 staining. The procedure: LPA or an LPA derivative was administered to tumor-bearing mice generated by subcutaneous inoculation of a mouse cancer cell line, and post-administration structural changes in tumor blood vessels were examined.
Lewis lung cancer cells (hereinafter called LLC cells) were used as the mouse cancer cell line. LLC cells (1×10^6 cells in 100 μL PBS per animal) were subcutaneously injected into C57BL/6 NCrSlc mice aged 8 weeks (females, SLC, Inc.).
The LPA used was 18:1 LPA (Avanti Polar Lipids, Inc.). The LPA derivative used was VPC31144S (N-{(1S)-2-hydroxy-1-[(phosphonooxy)methyl]ethyl} (9Z) octade c-9-enamide). A 10 mM LPA stock solution and a 10 mM VPC31144S stock solution were separately prepared using 50% ethanol and stored at −30° C. Before use, each of the frozen stock solutions was thawed and homogenized with an ultrasonic cleaner (SND Co., Ltd.) for 1 minute. The solution was diluted in PBS to an appropriate concentration for administration at a dose of 3 mg/kg in 100 μL PBS.
On day 9 post-inoculation, LLC-bearing mice that had developed a tumor with a volume of 60 to 80 mm^3 (volume=length×width×height×0.5) were selected and subjected to the experiment. The mice were assigned to three groups: a control group, an LPA group and a VPC31144S group. Each group consisted of three mice. […]

A further experiment deals with LLC tumor in mice. Put plainly: Drug (doxorubicin) delivery from tumor blood vessels to tumor tissues after LPA administration. The format is in vivo. The conditions noted are these: LLC-bearing mice, LPA 3 mg/kg i.p., doxorubicin 1.5 mg/kg via tail vein 24 hours later, tumors harvested at 20 minutes. From the text:
As is commonly known, low blood flow and vascular hyperpermeability are the hallmarks of tumors. These cause an increase in tumor interstitial fluid pressure, leading to no difference in osmotic pressure between the tumor parenchyma and the blood vessels. This condition is a great obstacle to substance penetration from the vascular lumen to tumor tissues. Based on the above results showing that LPA administration induces a dense network formation of tumor blood vessels with a smooth luminal surface, it was hypothesized that LPA administration would improve drug penetration from tumor blood vessels. To examine drug penetration into tumors after LPA administration, the following experiments were conducted.
LLC cells were subcutaneously inoculated into C57BL/6 NCrSlc mice aged 8 weeks (females, SLC, Inc.) in the same manner as in Reference Example 1. An LPA solution for administration was prepared in the same manner as in Reference Example 1. On day 11 post-inoculation, LLC-bearing mice that had developed a tumor with a volume of 100 to 120 mm^3 were selected. The mice were divided into two groups: a control group and an LPA group (n=3 per group). After grouping, LPA (3 mg/kg/100 μL) or PBS (100 μL) was intraperitoneally administered to the mice. […] Doxorubicin is a fluorescent anticancer drug that can be detected at an excitation wavelength of 480 nm and a measurement wavelength of 575 nm. […]

In the case of lysophosphatidic acid [LPA], the “network structure of tumor blood vessels” value in experiment [1] is “continuous network structure of blood vessels”. The “penetration of doxorubicin into tumors” value in the experiment on LLC tumor in mice is recorded as “delivery of doxorubicin from tumor blood vessels to the deep part of the tumor was observed”.
